PubChem BioAssay AID1845206 (Molecular Pharmacology Branch, DTP, NCI, 2023)
Calls of active or inactive are those of the source. The calls were made as follows: active = viability on the fitted dose curve at most 10% of control; inactive = the rest.

System: NCI-H1618 multicellular tumor spheroid viability
Assay: Anticancer human tumor NCI-H1618 cell line growth inhibition;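 also: spheroids exposed to agents for 7 days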
Details: for IC50: curve of first compound; for viability, T/C: stronger effect = lower value
Summary of the method: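 Single agents and combinations were tested on spheroids built from tumor cells plus HUVEC and hMSC, at half-log dilutions starting at or near clinical Cmax, else 10 microM; final DMSO 0.25% (v/v).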

[1] = second compound 1 µM, first compound 0.00949 µM
[2] = second compound 1 µM, first compound 0.03 µM
[3] = second compound 1 µM, first compound 0.0949 µM
[4] = second compound 1 µM, first compound 0.3 µM
[5] = second compound 1 µM, first compound 0.949 µM
[6] = second compound 1 µM, first compound 3 µM
[7] = second compound 3.16 µM, first compound 0.00949 µM
[8] = second compound 3.16 µM, first compound 0.03 µM
[9] = second compound 3.16 µM, first compound 0.0949 µM
[10] = second compound 3.16 µM, first compound 0.3 µM
[11] = second compound 3.16 µM, first compound 0.949 µM
[12] = second compound 3.16 µM, first compound 3 µM
[13] = second compound 10 µM, first compound 0.00949 µM
[14] = second compound 10 µM, first compound 0.03 µM
[15] = second compound 10 µM, first compound 0.0949 µM
[16] = second compound 10 µM, first compound 0.3 µM
[17] = second compound 10 µM, first compound 0.949 µM
[18] = second compound 10 µM, first compound 3 µM
[19] = second compound 31.6 µM, first compound 0.00949 µM
[20] = second compound 31.6 µM, first compound 0.03 µM
[21] = second compound 31.6 µM, first compound 0.0949 µM
[22] = second compound 31.6 µM, first compound 0.3 µM
[23] = second compound 31.6 µM, first compound 0.949 µM
[24] = second compound 31.6 µM, first compound 3 µM
[25] = second compound 100 µM, first compound 0.00949 µM
[26] = second compound 100 µM, first compound 0.03 µM
[27] = second compound 100 µM, first compound 0.0949 µM
[28] = second compound 100 µM, first compound 0.3 µM
[29] = second compound 100 µM, first compound 0.949 µM
[30] = second compound 100 µM, first compound 3 µM

In the case of `CC(C)n1c(=O)n(C)c2cnc3cc(F)c(-c4ccc(OCCCN5CCCCC5)nc4)cc3c21` + COc1cc2c(cc1O)CCNC21CSC2c3c(OC(C)=O)c(C)c4c(c3C(COC1=O)N1C(O)C3Cc5cc(C)c(OC)c(O)c5C(C21)N3C)OCO4, the IC50 (second compound 30 pM) is reported as 7230 nM, the IC50 (second compound 94.9 pM) is reported as less than 31.6 nM and the IC50 (second compound 0.0003 µM) is reported as less than 31.6 nM. For the same molecule, the IC50 (second compound 0.000949 µM) was less than 31.6 nM, the IC50 (second compound 0.003 µM) was less than 31.6 nM and the viability, T/C (second compound 30 pM, first compound 0.0316 µM) was 98.6%. For the same molecule, the viability, T/C (second compound 30 pM, first compound 0.1 µM) was 66.3%, the viability, T/C (second compound 30 pM, first compound 0.316 µM) was 83% and the viability, T/C (second compound 30 pM, first compound 1 µM) was 103%. For the same molecule, the viability, T/C (second compound 30 pM, first compound 3.16 µM) was 70%, the viability, T/C (second compound 30 pM, first compound 10 µM) was 42.2% and the viability, T/C (second compound 94.9 pM, first compound 0.0316 µM) was 46.2%. It also gave a viability, T/C (second compound 94.9 pM, first compound 0.1 µM) of 13.4%, a viability, T/C (second compound 94.9 pM, first compound 0.316 µM) of 36.4% and a viability, T/C (second compound 94.9 pM, first compound 1 µM) of 42.7%. For the same molecule, the viability, T/C (second compound 94.9 pM, first compound 3.16 µM) was 34.5%, the viability, T/C (second compound 94.9 pM, first compound 10 µM) was 15.9% and the viability, T/C (second compound 0.0003 µM, first compound 0.0316 µM) was 3.13%. It also gave a viability, T/C (second compound 0.0003 µM, first compound 0.1 µM) of 2.8%, a viability, T/C (second compound 0.0003 µM, first compound 0.316 µM) of 4.96% and a viability, T/C (second compound 0.0003 µM, first compound 1 µM) of 7.62%. The viability, T/C (second compound 0.0003 µM, first compound 3.16 µM) was 9.67%, the viability, T/C (second compound 0.0003 µM, first compound 10 µM) was 7.88% and the viability, T/C (second compound 0.000949 µM, first compound 0.0316 µM) was 5.33%. The viability, T/C (second compound 0.000949 µM, first compound 0.1 µM) was 5.23%, the viability, T/C (second compound 0.000949 µM, first compound 0.316 µM) was 5.71% and the viability, T/C (second compound 0.000949 µM, first compound 1 µM) was 5.14%. For the same molecule, the viability, T/C (second compound 0.000949 µM, first compound 3.16 µM) was 5.57%, the viability, T/C (second compound 0.000949 µM, first compound 10 µM) was 8.28% and the viability, T/C (second compound 0.003 µM, first compound 0.0316 µM) was 5.09%. For the same molecule, the viability, T/C (second compound 0.003 µM, first compound 0.1 µM) was 4.6%, the viability, T/C (second compound 0.003 µM, first compound 0.316 µM) was 4.56% and the viability, T/C (second compound 0.003 µM, first compound 1 µM) was 5.67%. For the same molecule, the viability, T/C (second compound 0.003 µM, first compound 3.16 µM) was 3.66% and the viability, T/C (second compound 0.003 µM, first compound 10 µM) was 5.04%.
`CNCc1ccc(-c2cc(-c3nc(-c4ccc(S(=O)(=O)C(C)C)cc4)cnc3N)on2)cc1` + Cn1nnc2c(C(N)=O)ncn2c1=O showed an IC50 (second compound 1 µM) of 57.2 nM, an IC50 (second compound 3.16 µM) of less than 9.49 nM and an IC50 (second compound 10 µM) of less than 9.49 nM. The IC50 (second compound 31.6 µM) was less than 9.49 nM, the IC50 (second compound 100 µM) was less than 9.49 nM and the viability, T/C [1] was 87.1%. The viability, T/C [2] was 89.3%, the viability, T/C [3] was 20% and the viability, T/C [4] was 9.42%. The viability, T/C [5] was 1.93%, the viability, T/C [6] was 0.47% and the viability, T/C [7] was 11.2%. For the same molecule, the viability, T/C [8] was 23.2%, the viability, T/C [9] was 21.4% and the viability, T/C [10] was 2.21%. It also gave a viability, T/C [11] of 1.04%, a viability, T/C [12] of 0.58% and a viability, T/C [13] of 8.64%. The viability, T/C [14] was 4.75%, the viability, T/C [15] was 3.76% and the viability, T/C [16] was 1.59%. It also gave a viability, T/C [17] of 0.8%, a viability, T/C [18] of 16.5% and a viability, T/C [19] of 10.5%. The viability, T/C [20] was 14.6%, the viability, T/C [21] was 19.2% and the viability, T/C [22] was 1.44%. For the same molecule, the viability, T/C [23] was 1.18%, the viability, T/C [24] was 18.5% and the outcome [25] was “inactive”. The viability, T/C [26] was 24.1%, the viability, T/C [27] was 13.9% and the viability, T/C [28] was 1.69%. The viability, T/C [29] was 19.3% and the viability, T/C [30] was 0.46%.
With `Cn1ncnc1[C@H]1c2n[nH]c(=O)c3cc(F)cc(c23)N[C@@H]1c1ccc(F)cc1` + Cn1nnc2c(C(N)=O)ncn2c1=O the IC50 (second compound 1 µM) was 9.72 nM, the IC50 (second compound 3.16 µM) was less than 9.49 nM and the IC50 (second compound 10 µM) was less than 9.49 nM. The IC50 (second compound 31.6 µM) was less than 9.49 nM, the IC50 (second compound 100 µM) was less than 9.49 nM and the viability, T/C [1] was 50.5%. The viability, T/C [2] was 26.7%, the viability, T/C [3] was 4.42% and the viability, T/C [4] was 1.85%. It also gave a viability, T/C [5] of 2.02%, a viability, T/C [6] of 2.04% and a viability, T/C [7] of 3.96%. The viability, T/C [8] was 22.4%, the viability, T/C [9] was 21.4% and the viability, T/C [10] was 1.75%. For the same molecule, the viability, T/C [11] was 1.84%, the viability, T/C [12] was 19.8% and the viability, T/C [13] was 19.2%. The viability, T/C [14] was 1.53%, the viability, T/C [15] was 2.45% and the viability, T/C [16] was 2.8%. For the same molecule, the viability, T/C [17] was 18.3%, the viability, T/C [18] was 1.95% and the viability, T/C [19] was 1.95%. It also gave a viability, T/C [20] of 1.94%, a viability, T/C [21] of 3.12% and a viability, T/C [22] of 1.9%. It also gave a viability, T/C [23] of 1.85%, a viability, T/C [24] of 2.06% and a viability, T/C [25] of 1.84%. The viability, T/C [26] was 2.1%, the viability, T/C [27] was 2.47% and the viability, T/C [28] was 2.51%. It also gave a viability, T/C [29] of 18.2% and a viability, T/C [30] of 2.29%.
For `O=C(c1cc(Cc2n[nH]c(=O)c3ccccc23)ccc1F)N1CCN(C(=O)C2CC2)CC1` + Cn1nnc2c(C(N)=O)ncn2c1=O, the IC50 (second compound 1 µM) was 179 nM, the IC50 (second compound 3.16 µM) was less than 94.9 nM and the IC50 (second compound 10 µM) was less than 94.9 nM. For the same molecule, the IC50 (second compound 31.6 µM) was less than 94.9 nM, the IC50 (second compound 100 µM) was less than 94.9 nM and the viability, T/C [3] was 77.8%. It also gave a viability, T/C [4] of 22.5%, a viability, T/C [5] of 23.6% and a viability, T/C [6] of 20.8%. For the same molecule, the viability, T/C (second compound 1 µM, first compound 9.49 µM) was 2.93%, the viability, T/C (second compound 1 µM, first compound 30 µM) was 5.71% and the viability, T/C [9] was 19.4%. The viability, T/C [10] was 25.9%, the viability, T/C [11] was 23.3% and the viability, T/C [12] was 3.5%. It also gave a viability, T/C (second compound 3.16 µM, first compound 9.49 µM) of 24.2%, a viability, T/C (second compound 3.16 µM, first compound 30 µM) of 8.1% and a viability, T/C [15] of 24.5%. For the same molecule, the viability, T/C [16] was 23.7%, the viability, T/C [17] was 21.8% and the viability, T/C [18] was 20%. For the same molecule, the viability, T/C (second compound 10 µM, first compound 9.49 µM) was 20.2%, the viability, T/C (second compound 10 µM, first compound 30 µM) was 5.57% and the viability, T/C [21] was 24.9%. For the same molecule, the viability, T/C [22] was 26.2%, the viability, T/C [23] was 21.8% and the viability, T/C [24] was 20.8%. For the same molecule, the viability, T/C (second compound 31.6 µM, first compound 9.49 µM) was 20.5%, the viability, T/C (second compound 31.6 µM, first compound 30 µM) was 3.19% and the viability, T/C [27] was 21.8%. For the same molecule, the viability, T/C [28] was 23.7%, the viability, T/C [29] was 23% and the viability, T/C [30] was 21.4%. It also gave a viability, T/C (second compound 100 µM, first compound 9.49 µM) of 2.71% and a viability, T/C (second compound 100 µM, first compound 30 µM) of 2.88%.
